Laboratory results: patent publication EP0825877B1, “COMPOSITION FOR PREVENTION OF POSTERIOR CAPSULE OPACIFICATION” (Pfizer Health AB, priority 1995, dated 1996)

Legend:
[1] = system: secondary cataract formation; experiment: In vivo secondary cataract formation (PCO wet mass), 5-FU single dose versus slow release; set-up: species or system rabbits; conditions: for inhibition of PCO: PCO measured as wet mass
Procedure: 5 mg of 5-FU was given to rabbits either as a single dose (instant release) or as a slow release formulation prepared according to Example 3 where 5 mg 5-FU was released over 3 or 12 days in vivo. The amount of secondary cataract formation in the rabbits were evaluated according to Lundgren at al (Lundgren B, Jonsson E and Rolfsen W, 1992, Acta Ophthalmol. Suppl 205:25-28). The single saline dose of 5-FU reduced the secondary cataract formation by 50% while the SR-formulation (SR-3 and SR-10) reduced the secondary cataract formation by 70 and 100% respectively.

[2] = system: secondary cataract formation; experiment: In vivo study in rabbits: secondary cataract weighed two months after phacoemulsification, IOL implantation and doxorubicin injection; set-up: species or system Albino rabbits; conditions: 1 µg doxorubicin; 100 µl into the capsular bag behind the IOL; two months postoperatively
Procedure: Albino rabbits were used. In both eyes the crystalline lens was removed by phacoemusification. In both eyes a PMMA IOL was implanted into the capsular bag. In one eye 100 µl of the doxorubicin-Healon slution was injected into the capsular bag behind the IOL. The fellow eye received 100 µ 1 Healon. Two months postoperatively the animals were killed, and the secondary cataracts were removed and weighed to the neariest mg. In one group the doxorubicin was injected dissolved in ta buffer solution instead of Healon. This in order to compare the efficacy when doxorubicin was dissolved in either Healon or buffer. There was a dose dependent inhibitory effect of doxorubicin dissolved in Healon. The doses of 3, 1 and 0.3 µg all gave a significant decrease of the secondary cataract formation. When comparing the dosage 1 µg injected in either Healon of buffer, there was a significant better inibitory effect when doxorubicin was delivered in Healon.
The amount of secondary cataract tissue was typically: […]

[3] = Diffusion experiment in a Sundelöf cell; type: physicochemical; conditions: 100 µg/ml of Doxorubicin; Sundelöfcell; hyaluronate 10 mg/ml
Procedure: Doxorubicin is slowly released from the hyaluronate-doxorubicine solution. […] The diffusion of Doxorubicine out of the hyaluronate solution is more than three times slower than the diffusion of doxorubicine in water. In a diffusion experiment using 100 µg/ml of Doxorubicin in a Sundelöfcell (Sundelöf L-O, 1982, Anal. Biochem, 127,282-286, Laurent T C, Preston B N Sundelöf L-O Van Damme M P, 1982, Anal. Biochem, 127, 287-292), it took 20 hours for 20 % of doxorubicin in water to diffuse into the upper compartment as compared to 70 hours for the doxorubicine in hyaluronate (10 mg/ml).

time for 20 % of doxorubicin to diffuse into the upper compartment [3] | Compound | inhibition of PCO ([1]; 5 mg administered as a single dose) | inhibition of PCO ([1]; 5 mg delivered over 2-3 days) | inhibition of PCO ([1]; 5 mg delivered over 10-12 days) | reduction of secondary cataract formation ([1]; 5 mg of 5-FU, single saline dose or slow release over 3 or 12 days) | amount of secondary cataract tissue [2]
– | O=c1[nH]cc(F)c(=O)[nH]1 [5-FU, 5-fluoro-uracil] | 50% | 70% | > 90% | 50% | –
20 h | COc1cccc2c1C(=O)c1c(O)c3c(c(O)c1C2=O)C[C@@](O)(C(=O)CO)C[C@@H]3O[C@H]1C[C@H](N)[C@H](O)[C@H](C)O1 [doxorubicin in buffer, doxorubicin] | – | – | – | – | 65 ± 15 mg
